These results are taken from patent publication US6605115B1, “Method and composition for inhibiting cardiovascular cell proliferation” (Board of Trustees of the Leland Stanford Junior University, priority 1999, dated 2003).

Assay [1] relates to human umbilical vein endothelial cells (ECV304). The experiment in a line: In vitro translocation of biotin-labeled peptides into endothelial cells. In kind it is cell-based. The protocol:
Spontaneously transformed human umbilical vein endothelial cells (ECV304, ATCC) were cultured in medium M199 (Irvine Scientific) containing 10% fetal bovine serum (FBS), 100 IU/ml penicillin and 100 μg/ml of streptomycin (Gibco BRL). Confluent cells were washed and placed in serum-free medium. After 2 hours, the cells were incubated in presence of biotin labeled peptides, as bL-R7, or bD-R7, or bL-K7 (0.1, 1.0, and 10.0 μM). After 30 minutes of incubation, cells were washed 3 times with phosphate-buffered saline (PBS), fixed in ethanol/acetone; washed in PBS; incubated for 30 minutes with peroxidase suppressor (ImmunoPure, Pierce) to block endogenous peroxidase activity; and then incubated with 5 μg/ml of horse-radish peroxidase (HRP) conjugated strepavidin (Pierce) for 30 minutes. Substrate of HRP, diaminobenzidine (DAB, Sigma), was added to the cells. The reaction was terminated by washing in distilled water after a 60-second incubation. This experiment was repeated 3 times.

Assay [2] deals with cytokine-stimulated VSMC. The experiment in a line: Effect of arginine oligomers on NO production in cytokine-stimulated VSMC (NO2, Griess). The format is cell-based, rat. As to the method:
Rat VSMCs were prepared from the media layer of thoracic aorta of Sprague-Dawley rats by the explant method. The cells were cultured in Dulbecco's modified Eagle's medium (DMEM, Gibco BRL, Gaithersburg, Md.) containing 10% fetal calf serum, 100 U/ml penicillin and 100 μg/ml streptomycin at 37° C. under a humidified atmosphere containing 5% CO2. After subconfluent growth, cells were cultured with MEM Select Amine Kit (Gibco BRL, Gaithersburg, Md.) to be treated by specific concentrations of extracellular free L-arginine. Experiments were performed using cultured cells at passage levels of 5-10.
Extracellular NO production was measured as its stable oxidative metabolite, nitrite (NO2). At the end of each incubation, samples of the medium (80 μl) were collected, and NO2 measurement was performed using the Griess reaction facilitated by a commercial calorimetric assay (Cayman Chemical, Ann Arbor, Mich.). Values of NO2 production were corrected with relative cell count assessed by a cell proliferation kit II (XTT) (Boeheringer Mannheim, Germany).
Subconfluent cells were pre-incubated with medium containing 100 μM arginine for 24 hours. The cells were then transiently pretreated with each arginine polymer for 30 minutes. After translocation, the cells were incubated with a mixture of IFN-γ (100 U/ml) and LPS (100 μg/ml) in medium containing 100 μM L-arginine for another 24 hours. In some experiments, L-NMMA (1 mM), a nitric oxide synthase inhibitor, was added to the medium.

A further assay has as its system iNOS protein. Briefly: Assay for iNOS protein expression (western blotting). In kind it is cell-based, rat. To be noted: 10 μM, 30 minutes exposure, cells stimulated by IFN-γ and LPS. The protocol:
In order to clarify the effects of arginine polymer translocation on iNOS expression, iNOS protein concentrations of rat VSMC were analyzed by western blotting. Samples were analyzed from non-stimulated cells, cells stimulated with IFN-γ (100 U/ml) and LPS (100 μg/ml), or R7 (10 μM) pretreated cells which were stimulated with IFN-γ and LPS. Treated cells were washed twice with PBS, and total cell lysates were harvested in 150 μl of lysis buffer containing 150 mM NaCl, 50 mM Tris/Cl, pH 8.0, 1% NP40, and 0.1% SDS. Samples were centrifuged for 5 minutes at 14,000 g, 4° C., to remove insoluble material, and the supernatant was collected. Protein concentrations were measured with the Lowry method. Cell lysates containing 50 μg of protein were boiled for 5 minutes and separated on an 8.0% SDS-polyacrylamide minigel. Eluted proteins were electroblotted onto nitrocellulose membrane (HyBond, Amersham, England). The blots were incubated for 1 hour in 5% non-fat dry milk/0.05% Tween® in Tris buffered saline (TBS) to block non-specific binding of the antibody. Blots were incubated for 3 hours with primary monoclonal antibodies against iNOS protein diluted 1:2,500 in TBS/Tween®. The blots were then incubated with peroxidase labeled gout anti-mouse IgG in the same buffer for 1 hour. […]
(Immunoblotting shows a protein as a band on a membrane.)

For a further assay, the system named is vein grafts. The experiment in a line: Vein graft model: vessel morphometry 28 days after surgery. The format is in vivo, New Zealand white rabbits. The protocol: Male New Zealand white rabbits (3.0-3.5 kg) fed standard diets were anesthetized with a mixture of ketamine (40 mg/kg) and xylazine (5 mg/kg) intramuscularly. The left external jugular vein was exposed through a longitudinal neck incision. The jugular vein was excised, gently flushed and immersed in PBS (control) or PBS containing either L-R7 (10.0 μM) or D-r7 (10.0 μM) for 30 minutes.
The right common carotid artery was exposed and clamped at the both proximal and distal ends. The treated vein segment was washed with PBS and then anastomosed in a reverse end-to-side fashion into the carotid artery, using continuous 8-0 polypropylene sutures. The common carotid artery was ligated and dissected between the two anastomoses, and the wound was closed with 3-0 nylon suture.
Vein graft segments were harvested on the 28th surgical day. Graft segments were fixed in 10% buffered formalin with gentle intraluminal pressure to maintain the physiological graft configuration. The middle portion of the paraffin samples were sectioned (5 μm) and stained with hematoxylin/eosin for light microscopic examination (FIGS. 8A-C). Three sections of each graft, taken at 0.5 mm intervals, were analyzed by planimetry by a observer blinded to the treatment group. The cross-sectional areas of the lumen, intima and media was digitized with the use of the Image Analyst program (Automatrix). The ratio of intima to media (I/M) area was calculated.

Another assay has as its system vein graft segments. The experiment in a line: Ex vivo NOx production from vein graft harvested 3 days after surgery. The format is in vivo, New Zealand white rabbits. The following applies: vein grafts harvested after 3 days, absence of calcium ionophore. The protocol: Vein grafts were harvested 3 days after surgery, as described in Example 7. Vein graft segments were incubated in 1 me of Hanks' buffered saline solution (HBSS, Irvine Scientific) containing Ca^2+ (1.0 mM) and L-arginine (100 μM, Sigma) at 37° C. for 2 hours. NOx (nitrate and nitrite) production was measured either in the absence (basal) or presence (stimulated) of calcium ionophore (A23187, 10.0 μM, Sigma). Samples of the medium (80 μL) were collected, and NOx measurement was performed using the Griess reaction facilitated by a commercial calorimetric assay (Cayman Chemical).

For a further assay, the system named is Rat aortic VSMC. The experiment in a line: VSMC proliferation assay (XTT). In kind it is cell-based. To be noted: 10.0 μM, 30 minutes, then growth medium 0.5% FBS for 48 hours; vs vehicle. As to the method: Rat aortic VSMC were grown to 50% confluence in 96-well cell culture plates. VSMC were then washed and incubated with serum free DMEM for 48 hours to obtain quiescent nondividing cells. Thereafter, VSMC were treated with vehicle, L-R7 (10.0 μM), or D-R7 (10.0 μM) for 30 minutes. After the treatment, cells were washed, and further incubated with serum containing DMEM (0.5%, FBS). Cells were harvested after 48 hours of incubation. Cell count was performed with commercial cell proliferation assay kit using spectrophotometer (XTT, Boehringer Mannheim). As a negative control, cells treated with vehicle and incubated with DSF were used. As an index of cell proliferation, the OD ratio of each treatment group to negative control group was calculated as an index of cell proliferation.

Assay [3] relates to cytokine-stimulated VSMC. The experiment in a line: Effect of arginine oligomers on NO production in cytokine-stimulated VSMC (NO2, Griess). In kind it is cell-based, rat. To be noted: exposure 5 minutes; observed for 24 hours; free L-arginine at 1 mM. On the technique in general: The Griess reaction detects nitrite, a stable product of nitric oxide.
The subject of assay [4] is rat vascular smooth muscle cells (VSMC). Briefly: Translocation of biotin-labeled peptides into cultured VSMC (HRP-streptavidin/DAB staining). The following applies: 10 μM, 30 minutes, 37° C. The format is cell-based. As to the method:
In the studies described below, transmembrane transport and cellular uptake of oligomers was assessed by incubating cells or tissue with biotin-oligomer conjugates, followed by treatment with horseradish peroxidase (HRP)-conjugated streptavidin and subsequent incubation with DAB (3,3′-diaminobenzidine), a substrate of the enzyme which produces a highly colored product.
Cultured VSMC (vascular smooth muscle cells) were treated, as described in Example 2, with biotinylated oligomers of arginine or lysine. After incubation, the cells were treated with HRP-streptavidin conjugate, then with DAB. Staining by the oxidation product was observed using light microscopy.
Rat VSMCs were grown on glass microscope slide chambers (Nunc Inc., Naperville, Ill.). Subconfluent cells were washed and placed in serum-free medium. After 2 hours, cells were treated with bR7, or bK7 (0.1 μM, 1.0 μM, 10 μM), at 37° C. for 30 minutes. To assess the role of endocytosis in cellular uptake of the peptides, experiments were performed at 4° C., and also in the presence of sodium azide (1.0%) for 30 minutes prior to exposure to the peptides. To assess the involvement of the basic amino acid transport system y+ in the translocation of peptides into the cell, experiments were performed in the presence of excess extracellular L-arginine (10 mM).
After 30 minutes of incubation with the peptides, cells were washed 3 times with phosphate-buffered saline (PBS), fixed for 5 minutes at −20° C. in ethanol/acetone, washed 3 times in PBS, incubated for 30 minutes with a peroxidase suppressor (ImmunoPure, Pierce, Rockford, Ill.) to block endogenous peroxidase activity and nonspecific binding, washed, and then incubated with 5 μg/ml of horseradish peroxidase (HRP) conjugated strepavidin (Pierce, Rockford, Ill.) for 30 minutes. Cells were washed 3 times with PBS, and a substrate of HRP, DAB (Sigma, St. Louis, […].), was added to the cells. The reaction was terminated by washing in distilled water after a 60-second incubation with DAB. Cell preparations were observed by conventional light microscopy (see FIG. 1). This experimental protocol was repeated 3 times.

Assay [5] concerns rabbit carotid artery segment. The experiment in a line: Ex vivo translocation study, carotid artery segments. To be noted: carotid artery, 10.0 μM, 30 minutes. Details: species or system New Zealand white rabbits. The protocol:
(§1) After incubation with biotin labeled oligomer, vascular segments were washed, then frozen in OCT compound (Miles Scientific). Frozen sections, 5 μm thick, were fixed with acetone for 10 minutes. Internalized biotin was detected using the staining procedure described in Example 2. Methyl green was used for nuclear counter staining.
(§2) To quantify the efficiency of nuclear translocation, the numbers of both DAB positive nuclei and total nuclei were counted in the intima and media separately at ×400 magnification with a video image analysis system (Automatrix). The frequency of nuclear translocation was expressed as the percent staining of nuclei, defined as the ratio of the number of DAB positive nuclei to that of all nuclei, in the intima and media. Each protocol was repeated 4 times.
Both carotid artery and jugular vein segments of male New Zealand white rabbits were used. To test the dose dependence of R7 translocation, vascular segments were incubated for 30 minutes with either bL-R7 or bD-R7 solution (0.1, 1.0, and 10.0 μM) in serum-free Dulbecco's minimal essential medium (DMEM) (Gibco BRL). To test the incubation time dependence, vascular segments were incubated with 10.0 μM of biotin labeled R7 solution for 10 seconds, 60 seconds, 5 minutes, 10 minutes, and 30 minutes. Furthermore, to determine the ability of R7 to penetrate through the vessel wall, vascular segments were ligated one end, R7 containing medium was instilled, and the other end ligated so as to expose only the luminal surface to R7. The luminal surface of the vascular segment was exposed to bL-R7 or bD-R7 (10.0 μM) for 30 minutes. To test the temperature dependence of translocation, vascular segments were incubated with 10.0 μM of biotin labeled R7 solutions at 37° C. or 4° C. To determine the disappearance time course of translocated R7, vascular segments were incubated with biotin labeled R7 solutions (10.0 μM) at 37° C. for 30 minutes, and then reincubated in DMEM with 10% FBS up to 5 days. Vascular segments were harvested at 1, 2 and 5 days after initial incubation.

A further assay deals with jugular vein segments. The experiment in a line: Ex vivo translocation study, jugular vein segments. Details: species or system New Zealand white rabbits. The following applies: 10 μM, 30 minutes. The protocol:
as §1, §2
Both carotid artery and jugular vein segments of male New Zealand white rabbits were used. To test the dose dependence of R7 translocation, vascular segments were incubated for 30 minutes with either bL-R7 or bD-R7 solution (0.1, 1.0, and 10.0 μM) in serum-free Dulbecco's minimal essential medium (DMEM) (Gibco BRL). To test the incubation time dependence, vascular segments were incubated with 10.0 μM of biotin labeled R7 solution for 10 seconds, 60 seconds, 5 minutes, 10 minutes, and 30 minutes. […]

Consider hepta-L-arginine [R7], for which the “translocation across cytoplasmic and nuclear membranes” value in assay [1] (VSMC and endothelial cells in culture) is “very efficient at translocating across both cytoplasmic and nuclear membranes”. Further, in the assay with cytokine-stimulated VSMC [2] (R7 10 μM pretreatment, free L-arginine up to 1 mM), the “elevation of NO production” value is on record as “significant elevation of NO production”. In addition, the NO production result in the assay on cytokine-stimulated VSMC [2] (pretreatment 30 minutes, then IFN-γ and LPS, 100 μM extracellular L-arginine) is given as “dose-dependent increases in NO production at doses as low as 10 μM”. Also, in the assay on cytokine-stimulated VSMC [2] (pretreatment 30 minutes, vs. vehicle treated cytokine-stimulated cells), the “degree of enhancement of NO production” value is recorded as 24±3.8%. Further, the “expression levels of iNOS” value in the assay with iNOS protein is given as “no effect on the expression levels of iNOS”. Besides, in the assay with vein grafts, the myointima formation result is given as “substantially less myointima formation”. The “intima/media ratio (I/M)” value in the assay with vein grafts (10.0 μM) was determined as 0.4±0.2. Besides, the intimal area in the assay on vein grafts (10.0 μM, 30 minutes immersion) amounted to 0.5±0.2 mm^2. Besides, the “reduction of intimal area” value with vein grafts (10.0 μM, vs control) is given as “more than 70%”. For the same substance, in the assay on vein graft segments, the “Basal NOx production” value is 80±14 nM/mg tissue/hr. Moreover, the VSMC proliferation entry in the assay on Rat aortic VSMC is given as “significantly inhibited”. The “NO biosynthesis after 5 minutes exposure” value in the assay with cytokine-stimulated VSMC [3] is “sustained increase in NO biosynthesis”.
Consider “biotin-labeled heptalysine [bK7, reference compound]”, for which the “internalized biotin signal (staining)” value in assay [4] is “no internalized biotin signal was observed”. Moreover, the internalized biotin signals entry in assay [1] (endothelial cells, 0.1, 1.0, and 10.0 μM, 30 minutes) was “No internalized biotin signals were detected”. Moreover, the “biotin signal in vascular cells” value in assay [5] is given as “no stained cells were apparent”. Besides, the biotin staining pattern entry in the assay with jugular vein segments was “no stained cells were apparent”.
